From US20160128338A1, “COMPOSITION AND METHODS FOR IMPROVED TURF HEALTH” (Valent U.S.A., Corporation, priority 2014, published 2016)

Columns and labels:
[1] = system: Dollar spot (Sclerotinia homoeocarpa); experiment: Dollar spot on creeping bentgrass fairways, field plots (% damage); type: in vivo; details: Plot 2, Metconazole 0.14 oz ai/1000 sq ft
Text: (§1) In order to determine the efficacy of combinations of metconazole and Myrothecium verucaria fermentation solids and solubles, numerous treatments were applied to plots in an area of turf grass. Specifically, the plots had established creeping bentgrass growing. No weed infestation was observed. Each plot was 30 square feet and the treatments were done in four replications. A randomized control was included in each block. The plots were no-till golf fairways. The treatments were applied during times of heat stress and also during times when no heat stress was present. The treatment solutions were prepared by pouring the liquid and dispersible granules in water and mixing. Treatments were applied to the turf grass at a volume of 2 gallons (256 liquid ounces)/1000 ft^2 with a CO2 backpack sprayer at 34 psi with a ground speed of 1 mph. The plots received six applications on 22 May, 6 June, 19 June, 4 July, 17 July, and 14 August. The turf grass was evaluated approximately every 7 days. Effect of Metconazole and Myrothecium verucaria fermentation solids and solubles on Dollar Spot on Creeping Bentgrass Fairways (% Damage)” and “Table 2. Effect of Metconazole and Myrothecium verucaria fermentation solids and solubles on Dollar Spot on Creeping Bentgrass Fairways (Quality Rating Based on a Scale of 1-9)”.

creeping bentgrass = experiment: Turf quality rating of creeping bentgrass fairways with dollar spot, field plots (scale 1-9); type: in vivo, creeping bentgrass (Agrostis stolonifera); details: Plot 2, Metconazole 0.14 oz ai/1000 sq ft
Text: as §1

CC1(C)CCC(Cc2ccc(Cl)cc2)C1(O)Cn1cncn1 (centres unmarked) [Metconazole, 5-[(4-chlorophenyl)methyl]-2,2-dimetyl-1-(1 H-1,2,4-triazol-1-ylmethyl)cyclopentanol]
Dollar Spot % Damage ([1]; 3 July): 16.3%
Dollar Spot % Damage ([1]; 6 June): 8.8%
Dollar Spot % Damage ([1]; 7 Aug): 36.3%
Dollar Spot % Damage ([1]; 10 July): 32.5%
Dollar Spot % Damage ([1]; 14 Aug): 55.0%
Dollar Spot % Damage ([1]; 15 June): 7.5%
Dollar Spot % Damage ([1]; 17 July): 36.3%
Dollar Spot % Damage ([1]; 21 Aug): 37.5%
Dollar Spot % Damage ([1]; 22 June): 10.0%
Dollar Spot % Damage ([1]; 25 July): 24.3%
Dollar Spot % Damage ([1]; 26 June): 11.3%
Dollar Spot % Damage ([1]; 31 July): 31.3%
Quality Rating Based on a Scale of 1-9 (creeping bentgrass; 3 July): 4.5
Quality Rating Based on a Scale of 1-9 (creeping bentgrass; 7 Aug): 4.8
Quality Rating Based on a Scale of 1-9 (creeping bentgrass; 10 July): 3.8
Quality Rating Based on a Scale of 1-9 (creeping bentgrass; 14 Aug): 4.0
Quality Rating Based on a Scale of 1-9 (creeping bentgrass; 15 June): 6.0
Quality Rating Based on a Scale of 1-9 (creeping bentgrass; 17 July): 3.5
Quality Rating Based on a Scale of 1-9 (creeping bentgrass; 21 Aug): 4.3
Quality Rating Based on a Scale of 1-9 (creeping bentgrass; 22 June): 5.5
Quality Rating Based on a Scale of 1-9 (creeping bentgrass; 25 July): 4.8
Quality Rating Based on a Scale of 1-9 (creeping bentgrass; 26 June): 5.5
Quality Rating Based on a Scale of 1-9 (creeping bentgrass; 31 July): 4.8
